Experimental data published in ChEMBL document CHEMBL4184111, “Small molecule immuno-oncology therapeutic agents” (Bioorg Med Chem Lett, 2018).

How the values were obtained:
[1] = molecular target: Programmed cell death protein 1 (Homo sapiens, UniProt Q15116); test: Inhibition of His-tagged PD-L1 binding to PD-1-Ig (unknown origin) preincubated with PD-L1 for 15 mins followed by PD-1-Ig addition measured after 15 mins by HTRF binding assay
eIF-2-alpha kinase GCN2 = eIF-2-alpha kinase GCN2 (Homo sapiens, UniProt Q9P2K8); test: Inhibition of GCN2 (unknown origin) using GFP--fused eIF2alpha as substrate preincubated for 20 mins followed by substrate and ATP addition measured after 90 mins by TR-FRET assay
Chain of eIF-2-alpha kinase GCN2 (Q9P2K8 whole entry, the tested form may be a part): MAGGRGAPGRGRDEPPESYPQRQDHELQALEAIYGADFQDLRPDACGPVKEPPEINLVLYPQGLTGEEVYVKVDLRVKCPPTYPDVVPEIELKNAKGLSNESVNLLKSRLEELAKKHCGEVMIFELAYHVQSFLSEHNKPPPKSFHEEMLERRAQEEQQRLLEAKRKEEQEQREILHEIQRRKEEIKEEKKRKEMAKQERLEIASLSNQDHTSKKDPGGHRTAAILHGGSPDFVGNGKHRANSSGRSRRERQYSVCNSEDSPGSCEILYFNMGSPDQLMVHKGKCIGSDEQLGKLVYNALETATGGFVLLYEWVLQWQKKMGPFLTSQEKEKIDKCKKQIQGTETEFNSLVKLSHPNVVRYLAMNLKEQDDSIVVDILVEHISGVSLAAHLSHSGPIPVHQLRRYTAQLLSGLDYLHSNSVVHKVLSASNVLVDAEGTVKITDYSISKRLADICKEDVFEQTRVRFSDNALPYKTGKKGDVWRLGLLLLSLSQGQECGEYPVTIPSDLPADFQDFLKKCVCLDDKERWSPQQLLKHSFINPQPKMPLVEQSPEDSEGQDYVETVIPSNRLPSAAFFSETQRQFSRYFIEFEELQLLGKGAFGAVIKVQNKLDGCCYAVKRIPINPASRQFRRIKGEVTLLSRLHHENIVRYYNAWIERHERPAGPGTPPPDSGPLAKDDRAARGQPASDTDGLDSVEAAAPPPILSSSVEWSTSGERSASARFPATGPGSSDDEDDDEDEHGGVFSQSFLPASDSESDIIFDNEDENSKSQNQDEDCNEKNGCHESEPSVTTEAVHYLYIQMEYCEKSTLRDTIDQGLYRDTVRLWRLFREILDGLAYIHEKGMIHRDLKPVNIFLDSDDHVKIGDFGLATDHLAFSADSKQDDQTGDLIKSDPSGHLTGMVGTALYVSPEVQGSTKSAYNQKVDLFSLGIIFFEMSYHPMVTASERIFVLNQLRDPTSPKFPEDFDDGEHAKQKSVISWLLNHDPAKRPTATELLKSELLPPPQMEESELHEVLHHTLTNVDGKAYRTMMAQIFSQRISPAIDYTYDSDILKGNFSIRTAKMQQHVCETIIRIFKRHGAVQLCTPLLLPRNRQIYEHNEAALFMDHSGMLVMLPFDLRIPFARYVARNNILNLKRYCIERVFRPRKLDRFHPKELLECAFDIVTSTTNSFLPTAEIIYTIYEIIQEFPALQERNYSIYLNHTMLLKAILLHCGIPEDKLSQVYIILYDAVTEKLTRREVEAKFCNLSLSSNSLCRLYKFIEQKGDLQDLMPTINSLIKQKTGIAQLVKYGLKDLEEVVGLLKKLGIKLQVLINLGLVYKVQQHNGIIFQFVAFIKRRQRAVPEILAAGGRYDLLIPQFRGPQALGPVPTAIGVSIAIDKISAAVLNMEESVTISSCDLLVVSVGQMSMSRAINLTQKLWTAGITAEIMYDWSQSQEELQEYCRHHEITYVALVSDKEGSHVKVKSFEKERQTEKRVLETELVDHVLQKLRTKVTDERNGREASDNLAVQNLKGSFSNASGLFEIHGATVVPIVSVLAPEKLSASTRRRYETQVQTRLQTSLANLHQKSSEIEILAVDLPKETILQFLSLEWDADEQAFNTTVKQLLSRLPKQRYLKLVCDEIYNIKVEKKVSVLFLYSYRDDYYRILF

[2] = molecular target: Tyrosine-protein kinase SYK (Homo sapiens, UniProt P43405); test: Inhibition of N-terminal GST-tagged human SYK expressed in baculovirus infected Sf9 insect cells using Biotin-Aha-Aha-KEDPDYEWPSAKK as substrate after 90 mins by flash plate assay
[3] = molecular target: Mitogen-activated protein kinase kinase kinase kinase 1 (Homo sapiens, UniProt Q92918); test: Inhibition of N-terminal GST-tagged human HPK1 (1 to 346 residues) after 30 mins in presence of ATP by indirect ELISA
Chain of Mitogen-activated protein kinase kinase kinase kinase 1 (Q92918 whole entry, the tested form may be a part): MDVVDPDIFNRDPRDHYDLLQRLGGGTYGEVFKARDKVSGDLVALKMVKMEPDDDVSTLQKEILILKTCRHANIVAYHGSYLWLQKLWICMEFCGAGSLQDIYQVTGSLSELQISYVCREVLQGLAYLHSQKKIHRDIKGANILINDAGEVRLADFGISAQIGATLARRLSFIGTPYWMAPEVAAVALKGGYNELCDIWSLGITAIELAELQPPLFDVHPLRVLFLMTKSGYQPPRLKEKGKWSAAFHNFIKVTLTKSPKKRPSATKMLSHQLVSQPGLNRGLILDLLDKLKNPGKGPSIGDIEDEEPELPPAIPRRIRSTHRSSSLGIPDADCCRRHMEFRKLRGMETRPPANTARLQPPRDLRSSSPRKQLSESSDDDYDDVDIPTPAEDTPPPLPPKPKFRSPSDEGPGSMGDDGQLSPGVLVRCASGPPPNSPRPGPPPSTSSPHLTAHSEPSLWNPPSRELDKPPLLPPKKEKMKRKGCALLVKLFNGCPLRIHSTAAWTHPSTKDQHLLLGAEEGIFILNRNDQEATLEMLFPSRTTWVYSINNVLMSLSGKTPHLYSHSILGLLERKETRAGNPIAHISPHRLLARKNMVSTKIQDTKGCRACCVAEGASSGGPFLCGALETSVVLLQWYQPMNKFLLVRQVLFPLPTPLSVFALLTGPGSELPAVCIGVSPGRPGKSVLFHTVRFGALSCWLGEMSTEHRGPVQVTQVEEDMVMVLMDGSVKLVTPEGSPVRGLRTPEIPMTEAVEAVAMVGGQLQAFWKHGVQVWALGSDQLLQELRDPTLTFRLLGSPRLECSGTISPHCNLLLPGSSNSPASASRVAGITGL

[4] = Inhibition of arginase (unknown origin); set-up: species or system Homo sapiens
[5] = Half life in rat; format: ADME, organism-based; details: in vivo
[6] = molecular target: T1, Arginase-2, mitochondrial (Homo sapiens, UniProt P78540); test: Inhibition of arginase 2 (unknown origin)
T1 sequence (P78540 whole entry): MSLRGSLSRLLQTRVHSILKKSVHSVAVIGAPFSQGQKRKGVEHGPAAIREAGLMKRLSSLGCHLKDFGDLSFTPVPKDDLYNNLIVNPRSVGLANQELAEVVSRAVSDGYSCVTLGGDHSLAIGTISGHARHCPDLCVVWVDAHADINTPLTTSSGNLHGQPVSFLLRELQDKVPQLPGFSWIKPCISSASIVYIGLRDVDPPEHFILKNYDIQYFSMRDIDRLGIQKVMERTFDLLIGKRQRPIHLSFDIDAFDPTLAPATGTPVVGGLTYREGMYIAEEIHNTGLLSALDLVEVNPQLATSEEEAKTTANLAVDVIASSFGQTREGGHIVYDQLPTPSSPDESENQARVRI

Chain of Programmed cell death protein 1 (Q15116 whole entry, the tested form may be a part): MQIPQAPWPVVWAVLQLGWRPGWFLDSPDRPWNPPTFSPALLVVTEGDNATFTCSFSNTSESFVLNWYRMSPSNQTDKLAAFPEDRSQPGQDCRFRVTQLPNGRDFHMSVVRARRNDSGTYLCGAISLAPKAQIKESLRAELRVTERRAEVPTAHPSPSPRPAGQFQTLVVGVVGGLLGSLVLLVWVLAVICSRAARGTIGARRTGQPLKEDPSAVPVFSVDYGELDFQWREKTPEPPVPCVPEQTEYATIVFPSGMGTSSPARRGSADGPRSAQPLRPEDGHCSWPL

C[C@H](O)[C@H](NC(=O)N[C@@H](CC(N)=O)c1nnc([C@@H](N)CO)s1)C(=O)O gave an IC50 [1] of less than 50 nM.

CC(C)C1(O)C(=O)Nc2cc(Nc3nc4c(-c5cnn(C)c5)nccn4n3)ccc21 (stereo not given) gave an IC50 (eIF-2-alpha kinase GCN2) of 300 to 3000 nM and an IC50 [2] of 100 to 300 nM.

O[C@H]1CC[C@H](n2cc(Nc3ncc4nnn(-c5ccc(Cl)c(F)c5)c4n3)cn2)CC1 gave an IC50 (eIF-2-alpha kinase GCN2) of less than 300 nM.

CN1CCN(c2ccc3nc(-c4c(N)c5sccc5[nH]c4=O)[nH]c3c2)CC1 gave an IC50 [3] of less than 50 nM.

Work on CN1CCN(c2ccc3[nH]c(-c4c(N)c5ccsc5[nH]c4=O)nc3c2)CC1 yielded an IC50 [3] of less than 50 nM.

Work on COc1cc(OCc2cccc(-c3ccccc3)c2C)cc(OC)c1CNCC1CC(=O)N1 (stereo not given) yielded an IC50 [1] of less than 50 nM.

Work on C[C@H](N)C(=O)N1C[C@H](CCCB(O)O)[C@](N)(C(=O)O)C1 yielded an IC50 [4] of 98 nM.

N=C(NO)NCC[C@H](N)C(=O)O [NOR-NOHA] showed a half-life [5] of 15 to 30 min and a Ki [6] of 51 nM.
